Experimental data: article doi:10.1101/2020.07.11.198341v1 (bioRxiv, 2020)

System: male C57Bl6J mice
Test: Metabolic efficiency
Type: in vivo
Conditions: insulin 20 nmol/kg daily i.p., n=8

Substance: insulin
- nocturnal chow intake: slight decrease
